{
  "source": "patent US20060069132A1",
  "about": "“Azolecarboxamide herbicides” (priority 2004, published 2006)",
  "key": {"barnyardgrass [1]": {"system": "barnyardgrass", "assay": "Test B pre-/postemergence herbicide test", "type": "in vivo, Echinochloa crus-galli", "conditions": "for Barnyardgrass plant response rating: postemergence", "summary_of_the_method": "(§1)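 Flooded paddy rice and barnyardgrass were treated at the 2-leaf stage; upland plantings received compound either on sown seed or on 1- to 4-leaf seedlings. All were kept 13–15 days in a greenhouse and scored visually, 0–100, relative to untreated plants.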"}, "giant foxtail": {"system": "giant foxtail", "assay": "Test B pre-/postemergence herbicide test", "type": "in vivo, Setaria faberi", "conditions": "for Foxtail, Giant plant response rating: postemergence", "summary_of_the_method": "(§2)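 Visual rating, 0 (no effect) to 100 (complete control), versus untreated controls after 13–15 d in greenhouse. Pre- and postemergence applications (postemergence plants 2–18 cm, 1–4 leaves); flooded paddy arm at 2-leaf stage. Compounds in non-phytotoxic solvent plus surfactant.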"}, "Surinam grass": {"system": "Surinam grass", "assay": "Test B pre-/postemergence herbicide test", "type": "in vivo, Urochloa decumbens", "conditions": "for Surinam Grass plant response rating: scale 0 (no effect) to 100 (complete control)", "summary_of_the_method": "as §2"}, "barnyardgrass [2]": {"system": "barnyardgrass", "assay": "Test B flooded paddy test", "type": "in vivo, Echinochloa crus-galli", "conditions": "1000 g ai/ha, scale 0 to 100 (0 no effect, 100 complete control)", "summary_of_the_method": "(§3)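 After treating 2-leaf paddy plants or 2–18 cm postemergence plants (1 to 4 leaves) with formulated chemical, researchers kept them in a greenhouse for 13–15 days. Effects were judged visually versus controls: 0 indicates none, 100 total control.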"}, "barnyardgrass [3]": {"system": "barnyardgrass", "assay": "Test C flooded paddy test", "type": "in vivo, Echinochloa crus-galli", "summary_of_the_method": "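Weeds and wheat were sprayed after emergence, at a height of 2 to 18 cm (1–4 leaves), and paddy barnyardgrass was flooded and treated at two leaves. Assessment took place 12–14 days later in the greenhouse on a 0-to-100 visual control scale. A dash means no result was obtained.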"}, "[4]": {"system": "smallflower umbrella sedge", "assay": "Test C flooded paddy test", "type": "in vivo, Cyperus difformis"}, "velvetleaf": {"system": "velvetleaf", "assay": "Test B pre-/postemergence herbicide test", "type": "in vivo, Abutilon theophrasti", "conditions": "for Velvetleaf plant response rating: scale 0 (no effect) to 100 (complete control)", "summary_of_the_method": "as §2"}, "corn": {"system": "corn", "assay": "Test B pre-/postemergence herbicide test", "type": "in vivo, Zea mays", "conditions": "for Corn plant response rating: postemergence", "summary_of_the_method": "as §2"}, "morningglory": {"system": "morningglory", "assay": "Test B pre-/postemergence herbicide test", "type": "in vivo, Ipomoea coccinea", "conditions": "for Morningglory plant response rating: scale 0 (no effect) to 100 (complete control)", "summary_of_the_method": "as §1"}, "rice [5]": {"system": "rice", "assay": "Test B flooded paddy test", "type": "in vivo, Oryza sativa", "conditions": "1000 g ai/ha, scale 0 to 100 (0 no effect, 100 complete control)", "summary_of_the_method": "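Read-out: visual comparison with controls, scored 0 to 100, where 100 means complete control and 0 no effect. Formulated chemicals were applied postemergence to plants 2–18 cm tall (1- to 4-leaf), or to flooded-paddy plants at the 2-leaf stage, then held 13 to 15 days under glass.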"}, "large crabgrass": {"system": "large crabgrass", "assay": "Test B pre-/postemergence herbicide test", "type": "in vivo, Digitaria sanguinalis", "conditions": "for Crabgrass, Large plant response rating: postemergence", "summary_of_the_method": "as §2"}, "ducksalad [6]": {"system": "ducksalad", "assay": "Test C flooded paddy test", "type": "in vivo, Heteranthera limosa"}, "cocklebur": {"system": "cocklebur", "assay": "Test B pre-/postemergence herbicide test", "type": "in vivo, Xanthium strumarium", "conditions": "for Cocklebur plant response rating: postemergence", "summary_of_the_method": "as §1"}, "wild oat": {"system": "wild oat", "assay": "Test B postemergence herbicide test", "type": "in vivo, Avena fatua", "conditions": "scale 0 (no effect) to 100 (complete control)", "summary_of_the_method": "as §3"}, "pigweed": {"system": "pigweed", "assay": "Test B pre-/postemergence herbicide test", "type": "in vivo, Amaranthus retroflexus", "conditions": "for Pigweed plant response rating: scale 0 (no effect) to 100 (complete control)", "summary_of_the_method": "as §2"}, "lambsquarters": {"system": "lambsquarters", "assay": "Test B pre-/postemergence herbicide test", "type": "in vivo, Chenopodium album", "conditions": "for Lambsquarters plant response rating: scale 0 (no effect) to 100 (complete control)", "summary_of_the_method": "as §2"}, "[7]": {"system": "small flower umbrella sedge", "assay": "Test B flooded paddy test", "type": "in vivo, Cyperus difformis", "conditions": "1000 g ai/ha, scale 0 to 100 (0 no effect, 100 complete control)", "summary_of_the_method": "as §3"}, "wheat": {"system": "wheat", "assay": "Test B postemergence herbicide test", "type": "in vivo, Triticum aestivum", "parameters": "key to Wheat plant response rating: 0 = no effect, 100 = complete control", "summary_of_the_method": "as §3"}, "ducksalad [8]": {"system": "ducksalad", "assay": "Test B flooded paddy test", "type": "in vivo, Heteranthera limosa", "conditions": "1000 g ai/ha, scale 0 to 100 (0 no effect, 100 complete control)", "summary_of_the_method": "as §3"}, "blackgrass": {"system": "blackgrass", "assay": "Test B postemergence herbicide test", "type": "in vivo, Alopecurus myosuroides", "conditions": "postemergence", "summary_of_the_method": "as §3"}, "rice [9]": {"system": "rice", "assay": "Test C flooded paddy test", "type": "in vivo, Oryza sativa", "summary_of_the_method": "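Postemergence sprays applied to plants 2 to 18 cm tall (1- to 4-leaf stage); paddy species grown to 2-leaf stage under flooding. After 12 to 14 days in greenhouse, visual rating versus untreated controls on 0–100 scale (0 no effect, 100 complete control).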"}, "[10]": {"conditions": "125 g ai/ha, 0 is no effect, 100 is complete control, preemergence"}, "[11]": {"conditions": "125 g ai/ha, visual rating, scale 0 (no effect) to 100 (complete control)"}, "[12]": {"conditions": "500 g ai/ha, scale 0 to 100, 0 is no effect, 100 is complete control"}, "[13]": {"conditions": "125 g ai/ha, visual rating, postemergence"}, "[14]": {"conditions": "125 g ai/ha, scale 0 to 100 (0 no effect, 100 complete control)"}, "[15]": {"conditions": "250 g ai/ha, scale of 0 to 100, 0 is no effect, 100 is complete control"}, "[16]": {"conditions": "500 g ai/ha, visual rating after 12 to 14 days, scale 0 to 100 (0 no effect, 100 complete control)"}},
  "data": [
    {"compound": "C=CCNC(=O)c1ccc(F)c(NC(=O)c2nn(C(C)(C)C)nc2CC)c1", "note": "[Compound 383]", "values": [
      {"measurement": "Plant response rating (0 to 100 scale), Barnyardgrass", "setting": "barnyardgrass [1]; [10]", "result": 10},
      {"measurement": "Barnyardgrass plant response rating", "setting": "barnyardgrass [1]; [11]", "result": 0},
      {"measurement": "Barnyardgrass plant response rating", "setting": "barnyardgrass [1]; [12]", "result": 0},
      {"measurement": "Plant response rating (0 to 100 scale), Foxtail, Giant", "setting": "giant foxtail; [10]", "result": 10},
      {"measurement": "Foxtail, Giant plant response rating", "setting": "giant foxtail; [11]", "result": 0},
      {"measurement": "Foxtail, Giant plant response rating", "setting": "giant foxtail; [12]", "result": 0},
      {"measurement": "Plant response rating (0 to 100 scale), Surinam Grass", "setting": "Surinam grass; [10]", "result": 10},
      {"measurement": "Surinam Grass plant response rating", "setting": "Surinam grass; [13]", "result": 10},
      {"measurement": "Surinam Grass plant response rating", "setting": "Surinam grass; Postemergence, 500 g ai/ha", "result": 20},
      {"measurement": "Barnyardgrass plant response rating", "setting": "barnyardgrass [2]", "result": 30},
      {"measurement": "Barnyardgrass plant response rating", "setting": "barnyardgrass [3]; 62 g ai/ha, scale 0 to 100 (0 no effect, 100 complete control)", "result": 0},
      {"measurement": "Barnyardgrass plant response rating", "setting": "barnyardgrass [3]; [14]", "result": 0},
      {"measurement": "Barnyardgrass plant response rating", "setting": "barnyardgrass [3]; [15]", "result": 15},
      {"measurement": "Plant response rating, Barnyardgrass", "setting": "barnyardgrass [3]; [16]", "result": 40},
      {"measurement": "Sedge, Umbrella plant response rating", "setting": "[4]; 62 g ai/ha, scale 0 to 100", "result": 0},
      {"measurement": "Sedge, Umbrella plant response rating", "setting": "[4]; [14]", "result": 45},
      {"measurement": "Sedge, Umbrella plant response rating", "setting": "[4]; [15]", "result": 65},
      {"measurement": "Plant response rating, Sedge, Umbrella", "setting": "[4]; [16]", "result": 90},
      {"measurement": "Plant response rating (0 to 100 scale), Velvetleaf", "setting": "velvetleaf; [10]", "result": 10},
      {"measurement": "Velvetleaf plant response rating", "setting": "velvetleaf; [13]", "result": 10},
      {"measurement": "Velvetleaf plant response rating", "setting": "velvetleaf; Postemergence, 500 g ai/ha", "result": 40},
      {"measurement": "Plant response rating (0 to 100 scale), Corn", "setting": "corn; [10]", "result": 0},
      {"measurement": "Corn plant response rating", "setting": "corn; [11]", "result": 0},
      {"measurement": "Corn plant response rating", "setting": "corn; [12]", "result": 0},
      {"measurement": "Plant response rating (0 to 100 scale), Morningglory", "setting": "morningglory; [10]", "result": 0},
      {"measurement": "Morningglory plant response rating", "setting": "morningglory; [13]", "result": 10},
      {"measurement": "Morningglory plant response rating", "setting": "morningglory; Postemergence, 500 g ai/ha", "result": 10},
      {"measurement": "Rice plant response rating", "setting": "rice [5]", "result": 60},
      {"measurement": "Plant response rating (0 to 100 scale), Crabgrass, Large", "setting": "large crabgrass; [10]", "result": 50},
      {"measurement": "Crabgrass, Large plant response rating", "setting": "large crabgrass; [11]", "result": 0},
      {"measurement": "Crabgrass, Large plant response rating", "setting": "large crabgrass; [12]", "result": 10},
      {"measurement": "Ducksalad plant response rating", "setting": "ducksalad [6]; 62 g ai/ha, scale 0 to 100", "result": 0},
      {"measurement": "Ducksalad plant response rating", "setting": "ducksalad [6]; [14]", "result": 45},
      {"measurement": "Ducksalad plant response rating", "setting": "ducksalad [6]; [15]", "result": 45},
      {"measurement": "Plant response rating, Ducksalad", "setting": "ducksalad [6]; [16]", "result": 95},
      {"measurement": "Plant response rating (0 to 100 scale), Cocklebur", "setting": "cocklebur; [10]", "result": 0},
      {"measurement": "Cocklebur plant response rating", "setting": "cocklebur; [11]", "result": 0},
      {"measurement": "Cocklebur plant response rating", "setting": "cocklebur; [12]", "result": 10},
      {"measurement": "Oat, Wild plant response rating", "setting": "wild oat; [13]", "result": 0},
      {"measurement": "Oat, Wild plant response rating", "setting": "wild oat; Postemergence, 500 g ai/ha", "result": 20},
      {"measurement": "Plant response rating (0 to 100 scale), Pigweed", "setting": "pigweed; [10]", "result": 0},
      {"measurement": "Pigweed plant response rating", "setting": "pigweed; [13]", "result": 20},
      {"measurement": "Pigweed plant response rating", "setting": "pigweed; Postemergence, 500 g ai/ha", "result": 30},
      {"measurement": "Plant response rating (0 to 100 scale), Lambsquarters", "setting": "lambsquarters; [10]", "result": 40},
      {"measurement": "Lambsquarters plant response rating", "setting": "lambsquarters; [13]", "result": 20},
      {"measurement": "Lambsquarters plant response rating", "setting": "lambsquarters; Postemergence, 500 g ai/ha", "result": 30},
      {"measurement": "Sedge, Umbrella plant response rating", "setting": "[7]", "result": 80},
      {"measurement": "Wheat plant response rating", "setting": "wheat; 125 g ai/ha, visual rating, scale 0 (no effect) to 100 (complete control), postemergence", "result": 0},
      {"measurement": "Wheat plant response rating", "setting": "wheat; 500 g ai/ha, scale 0 to 100, 0 no effect, 100 complete control, preemergence", "result": 10},
      {"measurement": "Wheat plant response rating", "setting": "wheat; Postemergence, 500 g ai/ha, scale 0 (no effect) to 100 (complete control)", "result": 0},
      {"measurement": "Ducksalad plant response rating", "setting": "ducksalad [8]", "result": 70},
      {"measurement": "Blackgrass plant response rating", "setting": "blackgrass; [11]", "result": 0},
      {"measurement": "Blackgrass plant response rating", "setting": "blackgrass; [12]", "result": 20},
      {"measurement": "Rice plant response rating", "setting": "rice [9]; 62 g ai/ha, scale 0 to 100", "result": 0},
      {"measurement": "Rice plant response rating", "setting": "rice [9]; [14]", "result": 5},
      {"measurement": "Rice plant response rating", "setting": "rice [9]; [15]", "result": 35},
      {"measurement": "Plant response rating, Rice", "setting": "rice [9]; [16]", "result": 50}
    ]}
  ]
}
